Test results published in patent publication US5032597A, “Method of using phenylquinolinecarboxylic acids and derivatives for lymthoid leukemia treatment in a mammal” (priority 1987, dated 1991).
Where two headings read alike, the source gives them in different places.

System: L1210 leukemia
Test: Lymphoid Leukemia L1210, survival of tumored mice
Format: in vivo, CD2F1 mice
Settings: for response vs control in vivo at 37.5 mg/kg: 37.5 mg/kg i.p.; for response vs control in vivo at 12.5 mg/kg: 12.5 mg/kg i.p.
Description: The efficacy of the compounds of this invention against the transplanted mouse tumors was evaluated in test systems currently in use at the National Cancer Institute for the detection and assessment of anticancer activity. […] J. Cancer, 17, 129-142, (1981); Venditti, J. M., Seminars in Oncology, 8 (4) (1981); Goldin, A. and J. M. Venditti, in Recent Results in Cancer Research, 70, S. K. Carter and Y. Sakurai, Eds., Springer-Verlag, Berlin/Heidelberg, 1980].
The animals used in this test were CD2 F1 mice, all males weighing a minimum of 18 g and all within a 4 g weight range at the start of the test. The test group consisted of six mice. The tumor was implanted in each of the test mice by the intraperitoneal injection of 0.1 ml of diluted ascitic fluid containing 10^5 cells drawn from a mouse with L1210 leukemia. The test compounds were suspended in hydroxypropylcellulose or saline with Tween® 80 surfactant or dissolved in saline and injected intraperitoneally, at various doses, once daily for nine consecutive days starting on day one relative to the day of tumor inoculation (day 0). The control mice received injections of saline or hydroxypropylcellulose vehicle only. The mice were weighed and survivors were recorded on a regular basis for 30 days. The median survival time and the ratio of the median survival time for the treated (T) and control (C) mice was calculated. […] Drug effectiveness was assessed on the basis of the survival time. Results were expressed as a percentage of the control survival time (Median Survival Time: T/C ×100%). The criterion for effectiveness was determined by: T/C×100≥125 percent.

[1] = Mus musculus, L1210, ip, 720 h, read-out: L1210 Leukemia % T/C (median survival time)
[2] = Mus musculus, L1210, ip, 720 h, 50 mg/kg i.p., read-out: L1210 Leukemia % T/C (median survival time)
[3] = Mus musculus, L1210, ip, 720 h, 75 mg/kg i.p., nonoptimal Q1DX9 instead of Q3DX9, read-out: L1210 Leukemia % T/C (median survival time)
[4] = Mus musculus, L1210, ip, 720 h, 150 mg/kg i.p., read-out: L1210 Leukemia % T/C (median survival time)
[5] = Mus musculus, L1210, ip, 720 h, 25 mg/kg i.p., read-out: L1210 Leukemia % T/C (median survival time)
[6] = Mus musculus, L1210, ip, 720 h, 75 mg/kg i.p., read-out: L1210 Leukemia % T/C (median survival time)
[7] = Mus musculus, L1210, ip, 720 h, 100 mg/kg i.p., read-out: L1210 Leukemia % T/C (median survival time)
[8] = Mus musculus, L1210, ip, 720 h, nonoptimal Q1DX9 instead of Q3DX9, read-out: L1210 Leukemia % T/C (median survival time)

Cc1c(-c2ccc([S+]([O-])c3ccccc3)cc2)nc2ccc(F)cc2c1C(=O)O (stereo not drawn) [Example 124]
response vs control in vivo at 360 mg/kg (Mus musculus, L1210, ip, 720 h, 360 mg/kg i.p., read-out: L1210 Leukemia % T/C (median survival time)): 184%

Cc1c(-c2ccc(Oc3ccccc3)cc2)nc2ccc(Br)cc2c1C(=O)O [Example 143]
response vs control in vivo at 37.5 mg/kg [1]: 132%

Cc1ccc2nc(-c3ccc(-c4ccccc4)cc3)c(C)c(C(=O)O)c2c1Cl [Example 166]
response vs control in vivo at 50 mg/kg [2]: 156%

COc1c(-c2ccc(-c3ccccc3)cc2)nc2ccc(F)cc2c1C(=O)O [Example 37]
L1210 Leukemia % T/C (median survival time) (50 mg/kg i.p.): 155%

Cc1c(-c2ccc(Oc3ccc([N+](=O)[O-])cc3)cc2)nc2ccc(F)cc2c1C(=O)O [Example 184]
L1210 Leukemia % T/C (median survival time) (175 mg/kg i.p.): 153%

Cc1cc2c(C(=O)O)c(C)c(-c3ccc(Oc4ccccc4)cc3)nc2cc1Cl [Example 149]
response vs control in vivo at 75 mg/kg [3]: 107%

O=C(O)c1cc(-c2ccc(Oc3ccc(F)cc3)cc2)nc2ccc(F)cc12 [Example 75]
response vs control in vivo at 150 mg/kg [4]: 145%

Cc1c(-c2ccc(-c3ccc(F)cc3)cc2)nc2ccc(Cl)cc2c1C(=O)O [Example 113]
L1210 Leukemia % T/C (median survival time) (25 mg/kg i.p.): 166%

Cc1c(-c2ccc(-c3ccccc3)cc2)nc2cc(Cl)c(F)cc2c1C(=O)O [Example 151]
L1210 Leukemia % T/C (median survival time) (75 mg/kg i.p.): 144%

Cc1c(-c2ccc(-c3ccccc3)cc2)nc2cc(F)ccc2c1C(=O)O [Example 186]
response vs control in vivo at 45 mg/kg (Mus musculus, L1210, ip, 720 h, 45 mg/kg i.p., nonoptimal Q1DX9 instead of Q3DX9, read-out: L1210 Leukemia % T/C (median survival time)): 123%

Cc1c(-c2ccc(-c3ccccc3)cc2)nc2ccc(C(F)(F)F)cc2c1C(=O)O [Example 146]
response vs control in vivo at 37.5 mg/kg [1]: 164%

Cc1c(-c2ccc(-c3ccc(Br)cc3)cc2)nc2ccc(Cl)cc2c1C(=O)O [Example 27]
response vs control in vivo at 50 mg/kg [2]: 155%

Cc1c(-c2ccc(-c3ccc(Br)cc3)cc2)nc2ccc(Cl)cc2c1C(=O)O [Example 117]
response vs control in vivo at 25 mg/kg [5]: 163%

Cc1c(-c2ccc(-c3ccccc3)cc2)nc2cc(Cl)c(F)cc2c1C(=O)O [Example 61]
response vs control in vivo at 75 mg/kg [6]: 160%

Cc1c(-c2ccc(-c3ccccc3)cc2)nc2ccc(I)cc2c1C(=O)O [Example 185]
response vs control in vivo at 50 mg/kg [2]: 175%

Cc1c(-c2ccc(-c3ccccc3)cc2)nc2ccc(F)cc2c1C(=O)OCCN(C)C [Example 196]
response vs control in vivo at 50 mg/kg [2]: 205%

Cc1cc(-c2ccccc2)ccc1-c1nc2ccc(F)cc2c(C(=O)O)c1C [Example 158]
L1210 Leukemia % T/C (median survival time) (100 mg/kg i.p.): 148%

Cc1c(-c2ccc(-c3ccc(Cl)c(Cl)c3)cc2)nc2ccc(F)cc2c1C(=O)O [Example 126]
response vs control in vivo at 37.5 mg/kg [1]: 150%

Cc1ccc(-c2ccc(-c3nc4ccc(F)c(Cl)c4c(C(=O)O)c3C)cc2)cc1 [Example 85]
L1210 Leukemia % T/C (median survival time) (100 mg/kg i.p.): 184%

Cc1c(-c2ccc([S+]([O-])c3ccccc3)cc2)nc2ccc(F)cc2c1C(=O)O (stereo not drawn) [Example 34]
response vs control in vivo at 400 mg/kg (Mus musculus, L1210, ip, 720 h, 400 mg/kg i.p., read-out: L1210 Leukemia % T/C (median survival time)): 170%

Cc1c(-c2ccc(-c3cccc(F)c3)cc2)nc2ccccc2c1C(=O)O [Example 190]
response vs control in vivo at 50 mg/kg [2]: 195%

Cc1cc(-c2ccccc2)ccc1-c1nc2ccc(F)cc2c(C(=O)O)c1C [Example 68]
response vs control in vivo at 100 mg/kg [7]: 162%

Cc1c(-c2ccc(-c3ccccc3F)cc2)nc2ccc(F)cc2c1C(=O)OCCCN(C)C [Example 200]
L1210 Leukemia % T/C (median survival time) (25 mg/kg i.p.): 140%

Cc1c(-c2ccc(SCc3ccccc3)cc2)nc2ccc(F)cc2c1C(=O)O [Example 116]
response vs control in vivo at 75 mg/kg [3]: 102%

CSc1ccc2nc(-c3ccc(-c4ccccc4)cc3)c(C)c(C(=O)O)c2c1 [Example 76, 2-(4-Biphenyl)-3-methyl-6-methylthio-4-quinoline carboxylic acid]
response vs control in vivo at 200 mg/kg (Mus musculus, L1210, ip, 720 h, 200 mg/kg i.p., read-out: L1210 Leukemia % T/C (median survival time)): 179%

Cc1ccc(-c2ccc(-c3nc4ccc(F)cc4c(C(=O)O)c3C)cc2)cc1C [Example 129]
response vs control in vivo at 100 mg/kg [7]: 154%

CCC(C)c1ccc(-c2nc3ccc(F)cc3c(C(=O)O)c2C)cc1 (stereo not drawn) [Example 99]
response vs control in vivo at 50 mg/kg (Mus musculus, L1210, ip, 720 h, 50 mg/kg i.p., nonoptimal Q1DX9 instead of Q3DX9, read-out: L1210 Leukemia % T/C (median survival time)): 101%

Cc1c(-c2ccc(Oc3ccc(F)cc3)cc2)nc2ccc(F)cc2c1C(=O)O [Example 125]
L1210 Leukemia % T/C (median survival time) (150 mg/kg i.p.): 150%

Cc1c(-c2ccc(Cc3ccccc3)cc2)nc2ccc(Cl)cc2c1C(=O)O [Example 22]
response vs control in vivo at 100 mg/kg [7]: 135%

Cc1ccc2c(C(=O)O)c(C)c(-c3ccc(-c4ccccc4)cc3)nc2c1 [Example 55]
response vs control in vivo at 150 mg/kg [4]: 156%

Cc1c(-c2ccc(-c3ccc(Br)cc3)cc2)nc2ccc(Cl)cc2c1C(=O)O [Example 175]
response vs control in vivo at 12.5 mg/kg [1]: 156%

Cc1c(-c2ccc(Oc3ccccc3)cc2)nc2ccc(Cl)cc2c1C(=O)O [Example 172]
response vs control in vivo at 100 mg/kg [7]: 151%

Cc1c(-c2ccc(-c3ccc(F)cc3)cc2)nc2cc(Cl)c(F)cc2c1C(=O)O [Example 144]
response vs control in vivo at 37.5 mg/kg [8]: 123%

Cc1c(-c2ccc(-c3ccccc3)cc2)nc2ccc(I)cc2c1C(=O)O [Example 71]
response vs control in vivo at 25 mg/kg [5]: 163%

Cc1c(-c2ccc(-c3ccccc3F)cc2)nc2ccc(F)c(Cl)c2c1C(=O)O [Example 167]
response vs control in vivo at 12.5 mg/kg [1]: 197%

Cc1c(-c2ccc(C3CCCCC3)cc2)nc2ccc(Br)cc2c1C(=O)O [Example 135]
L1210 Leukemia % T/C (median survival time) (400 mg/kg i.p.): 160%

Cc1c(-c2ccc(-c3ccc(Br)cc3)cc2)nc2ccc(F)cc2c1C(=O)O [Example 183]
response vs control in vivo at 22.5 mg/kg (Mus musculus, L1210, ip, 720 h, 22.5 mg/kg i.p., read-out: L1210 Leukemia % T/C (median survival time)): 208%

COc1c(-c2ccc(-c3ccc(C(F)(F)F)cc3)cc2)nc2ccc(F)cc2c1C(=O)O [Example 32]
response vs control in vivo at 175 mg/kg (Mus musculus, L1210, ip, 720 h, 175 mg/kg i.p., read-out: L1210 Leukemia % T/C (median survival time)): 153%

Cc1c(-c2ccc(-c3ccccc3F)cc2)nc2ccc(Cl)cc2c1C(=O)O [Example 160]
response vs control in vivo at 25 mg/kg [5]: 174%

Cc1ccc(-c2ccc(-c3nc4ccc(F)cc4c(C(=O)O)c3C)cc2)cc1Cl [Example 128]
response vs control in vivo at 25 mg/kg [5]: 135%

O=C(O)c1cc(-c2ccc(-c3ccccc3)cc2)nc2ccc(F)cc12 [Example 182]
response vs control in vivo at 46 mg/kg (Mus musculus, L1210, ip, 720 h, 46 mg/kg i.p., read-out: L1210 Leukemia % T/C (median survival time)): 168%

Cc1c(-c2ccc(Oc3ccccc3)cc2)nc2ccc(C(F)(F)F)cc2c1C(=O)O [Example 147]
response vs control in vivo at 18 mg/kg (Mus musculus, L1210, ip, 720 h, 18 mg/kg i.p., read-out: L1210 Leukemia % T/C (median survival time)): 132%

Cc1c(-c2ccc(Oc3ccccc3)cc2)nc2ccc(Cl)cc2c1C(=O)O [Example 110]
response vs control in vivo at 25 mg/kg [5]: 135%

O=C(O)c1cc(-c2ccc(-c3ccccc3)cc2)nc2ccc(F)cc12 [Example 123]
response vs control in vivo at 21.9 mg/kg (Mus musculus, L1210, ip, 720 h, 21.9 mg/kg i.p., read-out: L1210 Leukemia % T/C (median survival time)): 145%

Cc1c(-c2ccc(-c3ccc(Cl)c(Cl)c3)cc2)nc2ccc(F)cc2c1C(=O)O [Example 36]
response vs control in vivo at 75 mg/kg [6]: 185%

Cc1c(-c2ccc(-c3ccccc3)cc2)nc2c(Br)cc(Br)cc2c1C(=O)O [Example 150]
response vs control in vivo at 37.5 mg/kg [8]: 105%

Cc1c(-c2ccc(-c3ccc(F)cc3F)cc2)nc2ccc(F)cc2c1C(=O)O [Example 74]
response vs control in vivo at 50 mg/kg [2]: 104%

Cc1c(-c2ccc(-c3ccccc3)cc2)nc2ccc(F)c(Cl)c2c1C(=O)O [Example 164, Sodium 2-(4-Biphenylyl)-5-chloro-6-fluoro-3-methylquinoline-4-carboxylate]
response vs control in vivo at 22.5 mg/kg (Mus musculus, L1210, ip, 720 h, read-out: L1210 Leukemia % T/C (median survival time), 22.5 mg/kg i.p.): 234%
